Values quoted from earlier work as cited in patent US20240058414A1, “METHODS OF TREATING MELANOCORTIN-4 RECEPTOR PATHWAY-ASSOCIATED DISORDERS” (RHYTHM PHARMACEUTICALS, INC., priority 2020, published 2024).

How the values were obtained:
[1] = clinical trials; Chen et al. J. Clin. Endocrinol. Metab. 2015
[2] = patients with POMC and LEPR deficiency obesity, earlier pivotal studies

SMILES: CC(=O)N[C@@H](CCCNC(=N)N)C(=O)N[C@H]1CSSC[C@@H](C(N)=O)NC(=O)[C@H](Cc2c[nH]c3ccccc23)NC(=O)[C@H](CCCNC(=N)N)NC(=O)[C@@H](Cc2ccccc2)NC(=O)[C@H](Cc2cnc[nH]2)NC(=O)[C@@H](C)NC1=O [setmelanotide, Ac-Arg-c(Cys-D-Ala-His-D-Phe-Arg-Trp-Cys)-NH2]
- adverse effect on blood pressure [1]: has not been shown to adversely affect blood pressure
- reduction in hunger [2]: statistically significant and clinically meaningful reduction in hunger
- weight loss [2]: rapid and sustained significant and clinically meaningful weight loss
